Test results taken from patent publication US20160183564A1 (priority 2013, published 2016).
Several values for one entry are separate records, joined by “and”; a condition that tells them apart may be missing. Equal values may be shown once.

Assays:
Methanogenesis = format: cell-based
VFA production = format: cell-based

| SMILES | Effect on Methanogenesis (% compared to control) (Methanogenesis) | VFA profile (as percentage of total VFA) But. (VFA production) | VFA profile (as percentage of total VFA) Prop. (VFA production) | VFA profile (as percentage of total VFA) ace. (VFA production) |
| --- | --- | --- | --- | --- |
| O=[N+]([O-])c1ccc(NCCO)cc1 [2-(4-Nitro-phenylamino)-ethanol] | −12% |  |  |  |
| O=[N+]([O-])OCCCO [3-nitrooxy propanol, 3-Nitrooxypropanol] | −9% and −8% | 6 percentage of total VFA | 34 percentage of total VFA | 59 percentage of total VFA |
| CCCNc1ccc([N+](=O)[O-])cc1 [(4-Nitro-phenyl)-propyl-amine] | −11% |  |  |  |
| Nc1ccc([N+](=O)[O-])cc1 [(4-nitro-phenyl)-amine] | −15% | 8 percentage of total VFA | 33 percentage of total VFA | 59 percentage of total VFA |
